Data reported in US11447485B2, “Class of bifunctional compounds with quanternary ammonium salt structure” (Beijing Showby Pharmaceutical Co., Ltd., priority 2016, dated 2022).

Key:
[1] = biological target: T1, human recombinant β2 adrenoceptor (Homo sapiens, UniProt P07550); test: cell-based; format: cell-based; conditions: EC50 (β1)/EC50 (β2)
T1 construct: expressed in transfected cells

[2] = system: bronchoconstriction response in the trachea of guinea pig induced by Mch; test: Bronchoconstriction induced by methacholine (Mch) in anaesthetized guinea pigs, airway dripping (Raw, Cdyn); conditions: Mch 10 μg/kg iv; for Cdyn (ml/cmH2O) / Raw (cmH2O/ml/s): 30 min, Mean ± S.E.M
[3] = system: tracheal smooth muscle of guinea pig; test: Relaxation of CCh-induced constriction of isolated guinea pig tracheal smooth muscle (Experimental Example 1); conditions: for Onset time (min) ± SD / Time for eliminating inhibition effect (min): CCh 3 × 10^−6 mol/L, in vitro; for EC50: Cavia porcellus, read-out: EC50 (μM) ± SD
Method: The upper end was connected with a muscle tension transducer, and the specimen was given a resting tension of 1.0 g. Muscle tension changes were recorded, nutrient solution was changed every 20 min, and the experiment was started after 60 min of equilibrium.
Administration Method: After the trachea flake were stabilized, 3×10^−6 mol/L CCh was added to the bath. […] Diastolic condition of the trachea flake was observed. If no response occurred (below the threshold concentration), the next dosage was continued to be added in the order. If any response occurred, the next dosage was added until its diastolic platform was reached. The above operation was repeated until the shrink curve reached the minimum. Finally, 10^−6 mol/L isoproterenol was added to establish maximum relaxation, and the curve was recorded.
Statistical Methods: Statistics was performed using the Sigma Stat statistical software package, the data was analyzed by using the variance analysis. Student-Newman-Keuls (SNK) test was used in comparison among multiple sample averages number. The statistical test level was α=0.05 (bilateral).

T1 sequence (P07550 whole entry): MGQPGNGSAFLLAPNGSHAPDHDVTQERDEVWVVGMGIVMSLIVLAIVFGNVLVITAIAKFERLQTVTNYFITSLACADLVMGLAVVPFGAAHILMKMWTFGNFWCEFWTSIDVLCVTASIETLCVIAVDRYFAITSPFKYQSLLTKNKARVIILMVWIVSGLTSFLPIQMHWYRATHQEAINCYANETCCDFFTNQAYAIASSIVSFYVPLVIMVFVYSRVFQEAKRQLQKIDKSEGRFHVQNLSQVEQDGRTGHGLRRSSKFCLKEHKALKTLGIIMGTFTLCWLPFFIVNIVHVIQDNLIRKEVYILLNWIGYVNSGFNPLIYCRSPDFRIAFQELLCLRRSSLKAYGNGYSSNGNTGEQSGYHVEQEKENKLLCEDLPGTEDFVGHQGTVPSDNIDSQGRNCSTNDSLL

SMILES	sel (β1/β2) [1]	Onset time (min) ± SD [3]	Time for eliminating inhibition effect (min) [3]	EC50 [3]	other results
OCc1cc([C@@H](O)CNCCOCCCOCC[N+]23CCC(CC2)[C@@H](OC[C@@](O)(c2ccccc2)C2CCCC2)C3)ccc1O.[Br-] [Compound 48]	423.8	6.32 ± 0.49 min	more than 300 min	0.0154 ± 0.012 µM	Cdyn (ml/cmH2O) ([2]; 0.1 μg/kg airway dripping): 0.115 ± 0.011 ml/cmH2O; Raw (cmH2O/ml/s) ([2]; 0.1 μg/kg airway dripping): 0.712 ± 0.065 cmH2O/ml/s; inhibitory rate of lung dynamic compliance decrease ([2]; 0.1 μg/kg airway dripping): 32.2%; inhibitory rate on airway resistance increase ([2]; 0.1 μg/kg airway dripping): 66.2%; Cdyn (ml/cmH2O) ([2]; 0.3 μg/kg airway dripping): 0.139 ± 0.012 ml/cmH2O; Raw (cmH2O/ml/s) ([2]; 0.3 μg/kg airway dripping): 0.523 ± 0.032 cmH2O/ml/s; inhibitory rate of lung dynamic compliance decrease ([2]; 0.3 μg/kg airway dripping): 48.9%; inhibitory rate on airway resistance increase ([2]; 0.3 μg/kg airway dripping): 88.3%; Cdyn (ml/cmH2O) ([2]; 1 μg/kg airway dripping): 0.207 ± 0.016 ml/cmH2O; Raw (cmH2O/ml/s) ([2]; 1 μg/kg airway dripping): 0.493 ± 0.071 cmH2O/ml/s; inhibitory rate of lung dynamic compliance decrease ([2]; 1 μg/kg airway dripping): 50.1%; inhibitory rate on airway resistance increase ([2]; 1 μg/kg airway dripping): 91.6%
CCC(NC[C@H](O)c1ccc(O)c2[nH]c(=O)ccc12)c1ccc(OCCC[N+]23CCC(CC2)[C@@H](OC[C@@](O)(c2ccccc2)C2CCCC2)C3)cc1 (stereo partly drawn) [Compound 62, (R)-(−)-3-[(R)-2-hydroxy-2-cyclopentyl-2-phenyl]ethoxy-1-{3-[4-(1-{(R)-[2-hydroxy-2-(8-hydroxy-2-oxo-1,2-dihydroquinolin-5-yl)]ethylamino}propylidene)phenoxy]propyl}-1-azabicyclo[2,2,2]octylonium bromide]	126.7	7.02 ± 0.22 min	more than 300 min	0.0351 ± 0.01 µM	
CC(C)(NC[C@H](O)c1ccc(O)c(CO)c1)c1ccc(OCCC[N+]23CCC(CC2)[C@@H](OC[C@@](O)(c2ccccc2)C2CCCC2)C3)cc1.[Br-] [Compound 71]	468.2	6.92 ± 0.26 min	more than 300 min	0.019 ± 0.0061 µM	
CC(Cc1ccc(OCC[N+]23CCC(CC2)[C@@H](OC[C@@](O)(c2ccccc2)C2CCCC2)C3)cc1)NC[C@H](O)c1ccc(O)c(CO)c1.[Br-] (stereo partly shown) [Compound 75]	56.8	6.38 ± 0.35 min	more than 300 min	0.176 ± 0.031 µM	
O=c1ccc2c([C@@H](O)CNCCc3ccc(OCCC[N+]45CCC(CC4)[C@@H](OC[C@@](O)(c4ccc(Cl)cc4)C4CCCC4)C5)cc3)ccc(O)c2[nH]1.[Br-] [Compound 78]	108.6	6.48 ± 0.38 min	more than 300 min	0.0137 ± 0.0078 µM	
CC(C)(NC[C@H](O)c1ccc(O)c2[nH]c(=O)ccc12)c1ccc(OCCC[N+]23CCC(CC2)[C@@H](OC[C@@](O)(c2ccccc2)C2CCCC2)C3)cc1 [Compound 84]	238.8	6.78 ± 0.18 min	more than 300 min	0.0251 ± 0.0086 µM	
CCC(NC[C@H](O)c1ccc(O)c(NC=O)c1)c1ccc(OCCC[N+]23CCC(CC2)[C@@H](OC[C@@](O)(c2ccccc2)C2CCCC2)C3)cc1.[Br-] (stereo partly shown) [Compound 97]	56.7	6.36 ± 0.22 min	more than 300 min	0.0167 ± 0.0062 µM	
O=C1COc2c(cc(O)cc2[C@@H](O)CNCc2ccc(OCCC[N+]34CCC(CC3)[C@@H](OC[C@@](O)(c3ccccc3)C3CCCC3)C4)cc2)N1 [Compound 102]	102.6	5.78 ± 0.23 min	more than 300 min	0.0371 ± 0.019 µM	
O=C1COc2c(cc(O)cc2[C@@H](O)CNCCCc2ccc(OCCC[N+]34CCC(CC3)[C@@H](OC[C@@](O)(c3ccccc3)C3CCCC3)C4)cc2)N1 [Compound 104]	29.6	6.67 ± 0.17 min	more than 300 min	0.0106 ± 0.0079 µM	
O=C1COc2c(cc(O)cc2[C@@H](O)CNCc2cc(Cl)c(OCCC[N+]34CCC(CC3)[C@@H](OC[C@@](O)(c3ccccc3)C3CCCC3)C4)c(Cl)c2)N1.[Br-] [Compound 106]	288.9	6.26 ± 0.24 min	more than 300 min	0.0183 ± 0.0086 µM	
OCc1cc([C@@H](O)CNCCOc2ccc(OCC[N+]34CCC(CC3)[C@@H](OC[C@@](O)(c3ccccc3)C3CCCC3)C4)cc2)ccc1O [Compound 114, (R)-(−)-3-[(R)-2-hydroxy-2-cyclopentyl-2-phenyl]ethoxy-1-{2-[4-(2-{(R)-[2-(3-hydroxymethyl-4-hydroxy)phenyl-2-hydroxy]ethylamino}ethyoxyl)phenoxy]ethyl}-1-azabicyclo[2,2,2]octylonium bromide]	98.9	6.24 ± 0.13 min	more than 300 min		
COc1cc(CNCC(O)c2ccc(O)c3[nH]c(=O)ccc23)c(Cl)cc1NC(=O)CC[N+]12CCC(CC1)C(OCC(O)(c1ccccc1)C1CCCC1)C2 [Compound 115, (R)-(−)-3-[(R)-2-hydroxy-2-cyclopentyl-2-phenyl]ethoxy-1-{3-[5-chloro-2-methoxy-4-({(R)-[2-hydroxy-2-(8-hydroxy-2-oxo-1,2-dihydroquinolin-5-yl)]ethylamino}methyl)anilino]oxopropyl}-1-azabicyclo[2,2,2]octylonium bromide]	85.5	6.82 ± 0.36 min	more than 300 min	0.0237 ± 0.01 µM	
O=C(CC[N+]12CCC(CC1)[C@@H](OC[C@@](O)(c1ccccc1)C1CCCC1)C2)Nc1ccc(CNC[C@H](O)c2cc(O)cc3c2OCC(=O)N3)cc1 [Compound 116, (R)-(−)-3-[(R)-2-hydroxy-2-cyclopentyl-2-phenyl]ethoxy-1-{3-[4-({(R)-[2-hydroxy-2-(6-hydroxy-2H-1,4-benzoxazin-3(4H)-one-8-yl)]ethylamino}methyl)anilino]oxopropyl}-1-azabicyclo[2,2,2]octylonium bromide]	68.8	6.28 ± 0.56 min	more than 300 min	0.0267 ± 0.0072 µM	
CC(NC[C@H](O)c1ccc(O)c(NC=O)c1)c1ccc(COCC[N+]23CCC(CC2)[C@@H](OC[C@@](O)(c2ccccc2)C2CCCC2)C3)cc1 (stereo partly drawn) [Compound 117, (R)-(−)-3-[(R)-2-hydroxy-2-cyclopentyl-2-phenyl]ethoxy-1-{2-[4-(2-{(R)-[2-hydroxy-2-(3-formamido-4-hydroxy)phenyl]ethylamino}ethylidene)benzyloxy]ethyl}-1-azabicyclo[2,2,2]octylonium bromide]	39.8	5.96 ± 0.21 min	more than 300 min	0.0217 ± 0.0081 µM	
O=C1COc2c(cc(O)cc2[C@@H](O)CNCCOCc2ccc(COCC[N+]34CCC(CC3)[C@@H](OC[C@@](O)(c3ccccc3)C3CCCC3)C4)cc2)N1 [Compound 118, (R)-(−)-3-[(R)-2-hydroxy-2-cyclopentyl-2-phenyl]ethoxy-1-{2-[4-(2-{(R)-[2-hydroxy-2-(6-hydroxy-2H-1,4-benzoxazin-3(4H)-one-8-yl)]ethylamino}ethoxymethyl)benzyloxy]ethyl}-1-azabicyclo[2,2,2]octylonium bromide]	23.8	6.24 ± 0.41 min	more than 300 min	0.0241 ± 0.012 µM	
Cc1cc(CNC[C@H](O)c2ccc(O)c(NC=O)c2)ccc1NC(=O)CC[N+]12CCC(CC1)[C@@H](OC[C@@](O)(c1ccccc1)C1CCCC1)C2.[Br-] [Compound 140]	86.9	6.18 ± 0.18 min	more than 300 min	0.0235 ± 0.0054 µM	
COC1CCC([C@@](O)(CO[C@H]2C[N+]3(CCC(=O)Nc4ccc(CNC[C@H](O)c5ccc(O)c(NC=O)c5)cc4)CCC2CC3)c2ccccc2)C1.[Br-] (stereo partly shown) [Compound 141]	135.9	5.88 ± 0.26 min	more than 300 min	0.0363 ± 0.0095 µM	
